“Also recorded” adds a separate entry of the source.
Assays:
[1] = tested on: IGF-1R; experiment: Western blotting for IGF-1R phosphorylation in H2O2-treated HPAEC; format: cell-based, human
Protocol: (§1) Cell Culture and Reagents. Human pulmonary artery endothelial cells (HPAEC) were obtained from Cell Applications, Inc. (San Diego, Calif.) and cultured in EBM-2 basal medium containing supplements and growth factors as indicated in the manufacturer's protocol (Lonza, Walkersville, Md.). Cells were maintained at 37° C. in a humidified atmosphere containing 5% CO2. Subconfluent HPAEC at passages 4-8 were used for all experiments. The following chemical inhibitors and their final concentrations were used: AG1024 (5 μM, EMD Millipore, Billerica, Mass.), U0126 (10 μM), Ly294002 (20 μM), rapamycin (500 nM). […] 20 mM N-acetyl cysteine (NAC) was dissolved in distilled H2O.
(§2) Western blotting. […]
(§3) Protein concentrations from whole cell lysates were determined using Protein® BCA Protein Assay Kit (Thermo Scientific, Rockford, Ill.). […] Proteins were detected with horseradish peroxidase-linked secondary antibodies and SuperSignal® West Pico Chemiluminescent Substrate (Pierce, Rockford, Ill.). […]
(§4) Radiation-induced reactive oxygen species (ROS) are required for early IGF-1R phosphorylation. […] We then determined whether this ROS-induced phosphorylation is ligand-dependent by treating the cells with H2O2 in the presence of AG1024 and blotting for phosphorylated IGF-1R. […]

[2] = tested on: Human pulmonary artery endothelial cells (HPAEC); experiment: Cell morphology / cellular volume of X-ray irradiated HPAEC; format: cell-based; conditions: inhibitor pretreatment (AG1024 5 μM, Ly294002 20 μM, rapamycin 500 nM), 10 Gy X-rays, within 96 h
Protocol: as §1
(§5) Cell Irradiation: HPAEC were either irradiated or sham-irradiated at subconfluence (70-90%). Irradiations were conducted using RS2000 Biological Irradiator (Rad Source Technologies, Alpharetta, Ga.) with 0 3 mm Cu shielding at a dose rate of 2.4 Gy/min (160 kV, 25 mA) at room temperature.
Senescence-associated fl-galactosidase (SA-β-gal) Assay. SA-β-gal assay was performed according to established protocols with minor modifications (Dimri, Lee et al. 1995; Bandyopadhyay, Gatza et al. 2005). To avoid density-dependent false positive expression of SA-β-gal, HPAEC were seeded at a density of 1.0-2.0×10^4 on 12-well or 6-well dishes and allowed to reach 50-70% confluence prior to treatment. […]

[3] = tested on: Human pulmonary artery endothelial cells (HPAEC); experiment: Senescence-associated β-galactosidase (SA-β-gal) assay in X-ray irradiated HPAEC; format: cell-based; conditions: HPAEC pretreated 30 minutes with inhibitor (AG1024 5 μM, Ly294002 20 μM, rapamycin 500 nM, U0126 10 μM), 10 Gy X-rays, 4 days post-irradiation
Protocol: Cell Culture and Reagents. Human pulmonary artery endothelial cells (HPAEC) were obtained from Cell Applications, Inc. (San Diego, Calif.) and cultured in EBM-2 basal medium containing supplements and growth factors as indicated in the manufacturer's protocol (Lonza, Walkersville, Md.). Cells were maintained at 37° C. in a humidified atmosphere containing 5% CO2. Subconfluent HPAEC at passages 4-8 were used for all experiments. The following chemical inhibitors and their final concentrations were used: […] 20 mM N-acetyl cysteine (NAC) was dissolved in distilled H2O. Cell Irradiation: HPAEC were either irradiated or sham-irradiated at subconfluence (70-90%). Irradiations were conducted using RS2000 Biological Irradiator (Rad Source Technologies, Alpharetta, Ga.) with 0 3 mm Cu shielding at a dose rate of 2.4 Gy/min (160 kV, 25 mA) at room temperature. Senescence-associated fl-galactosidase (SA-β-gal) Assay. SA-β-gal assay was performed according to established protocols with minor modifications (Dimri, Lee et al. 1995; Bandyopadhyay, Gatza et al. 2005). To avoid density-dependent false positive expression of SA-β-gal, HPAEC were seeded at a density of 1.0-2.0×10^4 on 12-well or 6-well dishes and allowed to reach 50-70% confluence prior to treatment. At indicated time-points postirradiation, cells were washed twice in ice cold PBS, fixed in 2% formaldehyde/0.2% glutaraldehyde in PBS for 5 min at room temperature and washed again twice in ice-cold PBS. 1.5-2 ml of freshly prepared X-gal staining solution (1 mg/ml of 5-bromo-4-chloro-3-indolyl β-D-galactoside in 40 mM citric acid/sodium phosphate, pH 6.0 (made by mixing 36.85 parts 0.1 M citric acid solution with 63.15 parts 0.2 M sodium phosphate solution and then verifying pH to be 6.0, 0.1M citric acid was added to adjust pH when necessary), 5 mM potassium ferrocyanide, 5 mM potassium ferricyanide, 150 mM NaCl, 2 mM MgCl2) was then added to the culture dishes and the dishes were incubated for 12-20 h at 37° C. (without CO2). After incubation, cells were washed twice in ice-cold PBS and once in methanol and allowed to dry. Cells were examined for perinuclear blue staining indicative of SA-β-gal activity in at least 3 random fields.

[4] = tested on: p53 and p21/wafl; experiment: Western blotting for p53 and p21/wafl expression in irradiated HPAEC; format: cell-based, human; conditions: western blot
Protocol: as §1, §5, §2, §3

[5] = tested on: caspase-3; experiment: Western blotting for cleaved caspase-3 in irradiated HPAEC (radiation-induced apoptosis); format: cell-based, human; conditions: 6 hours post-irradiation
Protocol: as §1, §5, §2, §3

[6] = tested on: S6 ribosomal protein (Ser 235/236); experiment: Western blotting for phosphorylated S6 ribosomal protein (Ser 235/236) in irradiated HPAEC; format: cell-based, human; conditions: 5 μM AG1024, 10 Gy X-rays, 72 hours post-irradiation
Protocol: as §1, §5, §2, §3

[7] = tested on: Akt S473; experiment: Western blotting for phosphorylated Akt (S473) in irradiated HPAEC; format: cell-based, human; conditions: 5 μM AG1024, 10 Gy X-rays, 3 hours post-irradiation
Protocol: as §1, §5, §2, §3

[8] = tested on: IGF-1R; experiment: Western blotting for IGF-1R phosphorylation in X-ray irradiated HPAEC; format: cell-based, human; conditions: 20 mM NAC 1 hour, 10 Gy X-rays, 3 hours post-irradiation
Protocol: as §1
Cell Irradiation: HPAEC were either irradiated or sham-irradiated at subconfluence (70-90%). […]
as §3, §4

With OO [H2O2] the “IGF-1R phosphorylation induced by H2O2 alone” value ([1]; H2O2 1 μM and 10 μM, 20 minutes) was “sufficient to induce IGF-1R phosphorylation”.
With O=c1cc(N2CCOCC2)oc2c(-c3ccccc3)cccc12 [LY294002, 2-(4-Morpholinyl)-8-phenyl-4H-chromen-4-one] the “cellular morphology / change in cellular volume after radiation exposure” value [2] was “maintenance of normal cellular morphology”, the “radiation-induced accelerated senescence (SA-β-gal activity, percentage of SA-β-gal positive cells)” value [3] was “attenuated” and the “radiation-induced accelerated senescence (SA-β-gal activity, percentage of SA-β-gal positive cells)” value ([3]; listed as Ly294002) was “Attenuation”. The “radiation-induced p21/wafl expression” value ([4]; 500 nM rapamycin or 20 μM Ly294002, 10 Gy X-rays) was “attenuated”.
For CC(C)(C)c1cc(C=C(C#N)C#N)cc(Br)c1O [AG1024], the “ROS (H2O2)-induced IGF-1R phosphorylation in presence of inhibitor” value ([1]; 5 μM AG1024 30 minutes, then 10 μM H2O2 20 minutes) was “not inhibited”, the “levels of active (cleaved) caspase-3, radiation-induced apoptosis” value ([5]; 5 μM AG1024 30 minutes, 50 Gy X-rays) was “does not regulate; also recorded: did not alter” and the “cellular morphology / change in cellular volume after radiation exposure” value [2] was “prevented the change in cellular volume”. The “phosphorylation of S6 ribosomal protein (Ser 235/236)” value [6] was “significantly reduced”, the “radiation-induced accelerated senescence (SA-β-gal activity, percentage of SA-β-gal positive cells)” value [3] was “Attenuation; also recorded: significantly reduced cellular senescence” and the “radiation-induced p53 and p21/wafl expression” value ([4]; 5 μM AG1024, 10 Gy X-rays) was “suppression”. For the same compound, the “radiation-induced phosphorylation of Akt S473” value [7] was “had no effect”.
For CC(=O)N[C@@H](CS)C(=O)O [NAC, N-acetyl-L-cysteine], the “IR-induced IGF-1R phosphorylation” value [8] was “attenuated”.
In the case of N#CC(=C(/N)Sc1ccccc1N)/C(C#N)=C(\N)Sc1ccccc1N [U0126], the “radiation-induced accelerated senescence (SA-β-gal activity, percentage of SA-β-gal positive cells)” value [3] is reported as “did not rescue cells from undergoing accelerated senescence”.
For “IGF-1: exogenous IGF-1 (IGF-1R activator), activating ligand of IGF-1R”, the “levels of active (cleaved) caspase-3, radiation-induced apoptosis” value ([5]; exogenous IGF-1 50 ng/ml 18 hours, X-rays (10 Gy in legend, 50 Gy in text)) was “does not regulate; also recorded: did not alter”.
